Values after ≈ are worked out from the molar mass of the structure shown.
Key:
Format in all cases: functional
Staphylococcus aureus [1] = test: Antibacterial activity against methicillin-resistant Staphylococcus aureus N315 after 24 hrs by micro broth dilution method; conditions: N315, 24 h
Staphylococcus aureus [2] = test: Antibacterial activity against drug-resistant Staphylococcus aureus after 24 hrs by micro broth dilution method
Staphylococcus aureus [3] = test: Antibacterial activity against Staphylococcus aureus ATCC 25923 after 24 hrs by micro broth dilution method; conditions: ATCC 25923, 24 h
Staphylococcus aureus [4] = test: Antibacterial activity against Staphylococcus aureus ATCC 29213 after 24 hrs by micro broth dilution method; conditions: ATCC 29213, 24 h
Escherichia coli [5] = test: Antibacterial activity against drug-resistant Escherichia coli after 24 hrs by micro broth dilution method
Escherichia coli [6] = test: Antibacterial activity against Escherichia coli ATCC 25922 after 24 hrs by micro broth dilution method; conditions: ATCC 25922, 24 h
Pseudomonas aeruginosa [7] = test: Antibacterial activity against drug-resistant Pseudomonas aeruginosa after 24 hrs by micro broth dilution method
Pseudomonas aeruginosa [8] = test: Antibacterial activity against Pseudomonas aeruginosa ATCC 27853 after 24 hrs by micro broth dilution method; conditions: ATCC 27853, 24 h
Candida albicans [9] = test: Antifungal activity against drug-resistant Candida albicans after 24 hrs by micro broth dilution method
Candida albicans [10] = test: Antifungal activity against Candida albicans ATCC 90023 after 24 hrs by micro broth dilution method; conditions: ATCC 90023, 24 h
Candida tropicalis = test: Antifungal activity against Candida tropicalis after 24 hrs by micro broth dilution method
Pseudomonas aeruginosa [11] = test: Potency index, ratio of norfloxacin MIC to compound MIC for Pseudomonas aeruginosa ATCC 27853
Pseudomonas aeruginosa [12] = test: Potency index, ratio of metronidazole MIC to compound MIC for Pseudomonas aeruginosa ATCC 27853

Structure (SMILES) | MIC (Staphylococcus aureus [1]) | MIC (Staphylococcus aureus [2]) | MIC (Staphylococcus aureus [3]) | MIC (Staphylococcus aureus [4]) | MIC (Escherichia coli [5]) | MIC (Escherichia coli [6]) | MIC (Pseudomonas aeruginosa [7]) | MIC (Pseudomonas aeruginosa [8]) | MIC (Candida albicans [9]) | MIC (Candida albicans [10]) | MIC (Candida tropicalis) | Ratio (Pseudomonas aeruginosa [11]) | Ratio (Pseudomonas aeruginosa [12])
Cc1ncc([N+](=O)[O-])n1/C(=C/c1ccccc1)C(C)O (centres undefined) | 1870 µM (≈ 511 µg/mL) | 1870 µM (≈ 511 µg/mL) | 1870 µM (≈ 511 µg/mL) | 1870 µM (≈ 511 µg/mL) | 1870 µM (≈ 511 µg/mL) | 1870 µM (≈ 511 µg/mL) | 940 µM (≈ 257 µg/mL) | 230 µM (≈ 62.9 µg/mL) | 512 µg/mL (≈ 1870 µM) | 16 µg/mL (≈ 58.5 µM) | 128 µg/mL (≈ 468 µM) | 4 - 16 | –
CC(=O)/C(=C\c1ccc(F)cc1)n1c([N+](=O)[O-])cnc1C | 1760 µM (≈ 509 µg/mL) | 1760 µM (≈ 509 µg/mL) | 880 µM (≈ 255 µg/mL) | 1760 µM (≈ 509 µg/mL) | 1760 µM (≈ 509 µg/mL) | 110 µM (≈ 31.8 µg/mL) | 880 µM (≈ 255 µg/mL) | 440 µM (≈ 127 µg/mL) | 256 µg/mL (≈ 885 µM) | 128 µg/mL (≈ 442 µM) | 256 µg/mL (≈ 885 µM) | 4 - 16 | –
CC(=O)/C(=C\c1ccc(Cl)cc1)n1c([N+](=O)[O-])cnc1C | 1640 µM (≈ 501 µg/mL) | 210 µM (≈ 64.2 µg/mL) | 1640 µM (≈ 501 µg/mL) | 1640 µM (≈ 501 µg/mL) | 1640 µM (≈ 501 µg/mL) | 410 µM (≈ 125 µg/mL) | 1640 µM (≈ 501 µg/mL) | 820 µM (≈ 251 µg/mL) | 512 µg/mL (≈ 1670 µM) | 128 µg/mL (≈ 419 µM) | 128 µg/mL (≈ 419 µM) | – | –
Cc1ncc([N+](=O)[O-])n1/C(=C/c1ccc(Cl)cc1)C(C)O (centres undefined) | 1670 µM (≈ 514 µg/mL) | 830 µM (≈ 255 µg/mL) | 1670 µM (≈ 514 µg/mL) | 830 µM (≈ 255 µg/mL) | 1670 µM (≈ 514 µg/mL) | 1670 µM (≈ 514 µg/mL) | 1670 µM (≈ 514 µg/mL) | 410 µM (≈ 126 µg/mL) | 512 µg/mL (≈ 1660 µM) | 16 µg/mL (≈ 52 µM) | 256 µg/mL (≈ 832 µM) | – | –
COc1cc(/C=C(\C(C)=O)n2c([N+](=O)[O-])cnc2C)ccc1O | 1600 µM (≈ 508 µg/mL) | 1600 µM (≈ 508 µg/mL) | 400 µM (≈ 127 µg/mL) | 1600 µM (≈ 508 µg/mL) | 800 µM (≈ 254 µg/mL) | 100 µM (≈ 31.7 µg/mL) | 800 µM (≈ 254 µg/mL) | 400 µM (≈ 127 µg/mL) | 256 µg/mL (≈ 807 µM) | 128 µg/mL (≈ 403 µM) | 256 µg/mL (≈ 807 µM) | 4 - 16 | –
CCn1cc(C(=O)O)c(=O)c2cc(F)c(N3CCNCC3)cc21 [NORFLOXACIN] | 1600 µM (≈ 511 µg/mL) | 200 µM (≈ 63.9 µg/mL) | 100 µM (≈ 31.9 µg/mL) | 25 µM (≈ 7.98 µg/mL) | 1600 µM (≈ 511 µg/mL) | 50 µM (≈ 16 µg/mL) | 1600 µM (≈ 511 µg/mL) | 1600 µM (≈ 511 µg/mL) | – | – | – | – | –
OC(Cn1cncn1)(Cn1cncn1)c1ccc(F)cc1F [FLUCONAZOLE] | – | – | – | – | – | – | – | – | 8 µg/mL (≈ 26.1 µM) | 8 µg/mL (≈ 26.1 µM) | 256 µg/mL (≈ 836 µM) | – | –
Cc1ccc(/C=C(\C(C)O)n2c([N+](=O)[O-])cnc2C)cc1 (centres undefined) | 1780 µM (≈ 511 µg/mL) | 1780 µM (≈ 511 µg/mL) | 890 µM (≈ 256 µg/mL) | 1780 µM (≈ 511 µg/mL) | 1780 µM (≈ 511 µg/mL) | 440 µM (≈ 126 µg/mL) | 890 µM (≈ 256 µg/mL) | 440 µM (≈ 126 µg/mL) | 512 µg/mL (≈ 1780 µM) | 64 µg/mL (≈ 223 µM) | 128 µg/mL (≈ 445 µM) | 4 | 7
CCn1c2ccccc2c2cc(/C=C(\C(C)=O)n3c([N+](=O)[O-])cnc3C)ccc21 | 1640 µM (≈ 637 µg/mL) | 820 µM (≈ 319 µg/mL) | 820 µM (≈ 319 µg/mL) | 1640 µM (≈ 637 µg/mL) | 1640 µM (≈ 637 µg/mL) | 1640 µM (≈ 637 µg/mL) | 1640 µM (≈ 637 µg/mL) | 1640 µM (≈ 637 µg/mL) | 512 µg/mL (≈ 1320 µM) | 256 µg/mL (≈ 659 µM) | 256 µg/mL (≈ 659 µM) | – | –
Cc1ncc([N+](=O)[O-])n1CCO [METRONIDAZOLE] | 2970 µM (≈ 508 µg/mL) | 2970 µM (≈ 508 µg/mL) | 2970 µM (≈ 508 µg/mL) | 2970 µM (≈ 508 µg/mL) | 2970 µM (≈ 508 µg/mL) | 2970 µM (≈ 508 µg/mL) | 2970 µM (≈ 508 µg/mL) | 2970 µM (≈ 508 µg/mL) | – | – | – | – | –
CCn1c2ccccc2c2cc(/C=C(\C(C)O)n3c([N+](=O)[O-])cnc3C)ccc21 (centres undefined) | 1310 µM (≈ 511 µg/mL) | 1310 µM (≈ 511 µg/mL) | 1310 µM (≈ 511 µg/mL) | 660 µM (≈ 258 µg/mL) | 1310 µM (≈ 511 µg/mL) | 1310 µM (≈ 511 µg/mL) | 1310 µM (≈ 511 µg/mL) | 1310 µM (≈ 511 µg/mL) | 512 µg/mL (≈ 1310 µM) | 512 µg/mL (≈ 1310 µM) | 256 µg/mL (≈ 656 µM) | – | –
Cc1ncc([N+](=O)[O-])n1/C(=C/c1ccc(F)cc1)C(C)O (centres undefined) | 1760 µM (≈ 513 µg/mL) | 1710 µM (≈ 498 µg/mL) | 880 µM (≈ 256 µg/mL) | 1710 µM (≈ 498 µg/mL) | 1710 µM (≈ 498 µg/mL) | 440 µM (≈ 128 µg/mL) | 880 µM (≈ 256 µg/mL) | 110 µM (≈ 32 µg/mL) | 512 µg/mL (≈ 1760 µM) | 64 µg/mL (≈ 220 µM) | 128 µg/mL (≈ 439 µM) | 4 - 16 | –

From ChEMBL document CHEMBL4177646, “Discovery of novel nitroimidazole enols as Pseudomonas aeruginosa DNA cleavage agents” (Bioorg Med Chem, 2017)
